Reference: patent US20110098296A1, “Thiazole And Oxazole Kinase Inhibitors” (priority 2007, published 2011)

What was measured:
Type in all cases: cell-based
Colo205 tumor cells = assay: Method A: Methylene Blue Growth Inhibition Assay, Colo205; conditions: Homo sapiens, COLO 205, 72 h, 3 days
Method: (§1) Human breast (BT474) and head and neck (HN5) tumor cells were cultured in low glucose DMEM (Life Technologies 12320-032) containing 10% fetal bovine serum (FBS). Human colon tumor cells (Colo205) were cultured in DMEM (Invitrogen, 10564) containing 10% FBS. The SV40 transformed human mammary epithelial cell line HB4a was transfected with either human H-ras cDNA (HB4a r4.2) or the human c-ErbB2 cDNA (HB4a c5.2). The HB4a clones were cultured in RPMI containing 10% FBS, insulin (5 g/mL), hydrocortisone (5 g/mL), supplemented with the selection agent hygromycin B (50 g/mL). All lines were grown in a humidified incubator at 37° C. in 95% air, 5% CO2. Cells were harvested using trypsin/EDTA, counted using a haemocytometer, and plated in 100 μL of the appropriate media, at the following densities, in a 96-well tissue culture plate (Falcon 3075): BT474 10,000 cells/well, HN5 3,000 cells/well. The next day, compounds were diluted in DMEM containing […] gentamicin, at twice the final required concentration, from 10 mM stock solutions in DMSO. 100 μl/well of these dilutions were added to the 100 μL of media currently on the cell plates. Medium containing 0.6% DMSO was added to control wells. Compounds diluted in DMEM were added to all cell lines. The final concentration of DMSO in all wells was 0.3%. Cells were returned to the incubator (37° C., […]) for 3 days. Medium was then removed by aspiration. Cell biomass was estimated by staining cells with 90 μL/well methylene blue (Sigma M9140, 0.5% in 1:1 EtOH:H2O), and incubation at room temperature for at least 30 minutes. Stain was removed, and the plates rinsed by immersion in deionized H2O and air-dried. To release stain from the cells 100 μL of solubilization solution were added (1% N-lauroyl sarcosine, sodium salt, Sigma L5125, in PBS), and plates were shaken gently for about 30 minutes. Optical density at 620 nm was measured on a microplate reader. Percent inhibition of cell growth was calculated relative to vehicle-treated control wells. Concentration of compound that inhibits 50% of control cell growth (IC50) was interpolated using nonlinear regression (Levenberg-Marquardt) and the equation,
(§2) y=Vmax*(1−(x/(K+x)))+Y2, where “K” was equal to the IC50.

HN5 tumor cells = assay: Method A: Methylene Blue Growth Inhibition Assay, HN5; conditions: Homo sapiens, 72 h, 3 days
Method: as §1, §2

BT474 tumor cells = assay: Method B: CellTiter-Glo Growth Inhibition Assay, BT474; conditions: Homo sapiens, BT-474, 72 h, 3 days
Method in brief: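 Cells plated (BT474 3,000, HN5 500, Colo205 3,000 per well) in RPMI or DMEM with 10% FBS; compounds added next day, final DMSO 0.3%, then 3 days at 37° C, 5% CO2. Viability by CellTiter-Glo luminescence; percent inhibition versus vehicle, IC50 interpolated by nonlinear regression.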

SMILES: COc1cc(Nc2nccc(-c3sc(N)nc3-c3cccc(NC(=O)c4c(F)cccc4F)c3)n2)cc(OC)c1OC [Example 16, N-[3-(2-Amino-5-{2-[(3,4,5-trimethoxyphenyl)amino]pyrimidiN-4-yl}-1,3-thiazol-4-yl)phenyl]-2,6-difluorobenzamide]
- IC50 (Colo205 tumor cells): < 0.1 µM

SMILES: COc1ccc(Nc2nccc(-c3sc(N)nc3-c3cccc(NC(=O)c4c(F)cccc4F)c3)n2)cc1N1CCNCC1 [Example 18, N-[3-(2-Amino-5-{2-[(4-methoxy-3-piperaziN-1-ylphenyl)amino]pyrimidiN-4-yl}-1,3-thiazol-4-yl)phenyl]-2,6-difluorobenzamide]
- IC50 (HN5 tumor cells): < 0.1 µM

SMILES: Cc1nc(-c2cccc(NC(=O)c3cc(F)ccc3F)c2)c(-c2ccnc(Nc3ccc(OCCN(C)C)c(Cl)c3)n2)o1 [Example 142]
- IC50 (BT474 tumor cells): > 1 µM
